The test system of this test is cancer cell lines. The test is classed as cell-based.

IFNα: the “synergy with SMC using recombinant cytokines” value is reported as “recapitulated”.
In the case of IFNγ it was “recapitulated”.

The values are drawn from patent publication US20210322545A1 (priority 2016, published 2021).
